Experimental data reported in patent US10100079B2, “Progesterone-cationic lipid hybrid as anticancer agent and the process of synthesis thereof” (Council of Scientific & Industrial Research, priority 2016, dated 2018).
Like-named read-outs stand apart in the source and are kept apart here.

Columns and labels:
[1] = tested on: chick embryo vascularization; test: Chick embryo angiogenesis (CEA) assay; format: in vivo, chicken; settings: 20 μL, 5 μM, 4 h
Procedure: FIG. 7B: In vivo chick embryo angiogenesis (CEA) assay. Vascular sprouting was imaged following 0 h (left panel) and 4 h (right panel) treatment with DMSO, 1 (20 μL, 5 μM) and 6c (20 μL, 5 μM). Damaged vessel is indicated by black arrow.
To measure the anti-angiogenic property chick embryo angiogenesis study was carried out. For this study, fertile chicken eggs were incubated at 37° C. humidified incubator. After four day of incubation, the […] of the eggs were cautiously removed using forceps. After that, the egg yolks were carefully treated with DMSO (20 μL; 0.1% DMSO in IX PBS), compound 1 (20 μL; 5 μM), and 6c (20 μL; 5 μM) for 4 h. Images were captured at 0 and 4 h of incubation with a stereomicroscope (Leica). Different angiogenic parameters were quantified using Angioquant software.

HUVEC = test: Viability study in HUVEC cell (FIG. 7A); format: cell-based, Human; settings: 48 h
Procedure: 2 μM Doxorubicin (DOX) was taken as positive control. + indicates p<0.01.
T47D, MCF-7, MDA-MB-231 (human breast carcinoma), OVCAR-3 (Human ovary carcinoma), B16F10 (murine melanoma), HUVEC (Human umbilical vein endothelium) cells were purchased from the American Type Cell Culture (ATCC, USA) and CHO (Chinese hamster ovary), NIH-3T3 (murine embryo fibroblast) and COS-1 (Kidney fibroblast) cells were purchased from National Center for Cell Sciences (Pune, India). All cells were grown into mycoplasma free condition. […] All cells were grown up to 75-85% confluency after which cells were trypsinized, counted and seeded, in 96-well plates for cell viability studies, 6-well plates for apoptosis studies, 60 mm dish for cell cycle studies and in 25 cm^2 or 75 cm^2 tissue culture flasks for Western blot studies.
Cytotoxicity assay of the different compounds were carried out by using 3-(4,5-dimethylthiazol-2-yl)-2,5-diphenyltetrazolium bromide (MTT). […] Then the media was removed carefully, and the reduced MTT was dissolved in 1:1 (v/v) DMSO/Methanol and absorbance was measured using multimode reader (Synergy H1, BioTek). […]

MCF7 = test: MTT cytotoxicity assay, MCF7; format: cell-based; settings: Homo sapiens, read-out: IC50 MCF7
Procedure: (§1) All cells were grown into mycoplasma free condition. […] All cells were grown up to 75-85% confluency after which cells were trypsinized, counted and seeded, in 96-well plates for cell viability studies, 6-well plates for apoptosis studies, 60 mm dish for cell cycle studies and in 25 cm^2 or 75 cm^2 tissue culture flasks for Western blot studies. The primary stock of the cationic progesterone molecules were made in cell culture grade DMSO and from that secondary stock was prepared by serial dilution with cell culture grade DMSO. The final working concentrations were prepared by diluting the secondary stock in cell culture media keeping the DMSO concentration in working solution below 0.2% with respect to cell culture medium. […] For this assay, 12-18 h before treatment cells were plated in 96-well plate at 5000 cells/well density. […] After completion of the treatment, 10 μL of MTT solution (5 mg/mL) was added in each well and incubated for 4 h. Then the media was removed carefully, and the reduced MTT was dissolved in 1:1 (v/v) DMSO/Methanol and absorbance was measured using multimode reader (Synergy H1, BioTek). Results were represented as percentage of viability={[A550(treated cells)−background]/[A550(untreated cells)−background]}×100. The result was summarized and provided as IC50 table in Table 1.

CHO = test: MTT cytotoxicity assay, CHO; format: cell-based, Chinese hamster; settings: Cricetulus griseus, read-out: IC50 CHO
Procedure: as §1

B16F10 (PgR-negative) = test: Cell cycle assay by flow cytometry (PI), B16F10; format: cell-based, murine; settings: B16F10, 10 μM, 24 h
Procedure: (§2) To measure the cellular DNA content, cell cycle assay was carried out. In this assay, first cells were synchronized at early S-phase by double thymidine blocking. When cell confluency was reached around 25-30% in 60 mm dish, cells were treated with 2 mM thymidine, diluted in 10% FBS containing DMEM, for 18 h to block cells at early S-phase. To release the blocking, media was discarded and washed with 1×PBS. Then the cells were incubated with fresh cell culture media containing 10% FBS for 9 h. After releasing, second blocking was done with 2 mM thymidine containing media for 17 h. After second blocking cells were released by discarding the thymidine supplemented media and kept in fresh media. All the respective treatments for cell cycle study were done after 2 h of second release.
(§3) S-phase synchronized cells were either kept untreated or treated with compound 1 (10 μM) and 6c (10 μM) for 24 h. Cells from different treatment groups were harvested, washed with 1×PBS, and fixed with 70% ethanol and kept at −20° C. for overnight. Then the ethanol was removed and washed with 1×PBS. […] After incubation cells were collected by centrifugation, washed with 1×PBS, re-suspended in 500 μL 1×PBS, and data was recorded using flow cytometer (FACS Canto II, Becton-Dickinson, San Jose, Calif., USA) and data were analyzed with FACS Diva software. […]

T47D = test: MTT cytotoxicity assay, T47D; format: cell-based; settings: Homo sapiens, read-out: IC50 T47D
Procedure: as §1

T47D (PgR-positive) = test: Cell cycle assay by flow cytometry (PI), T47D; format: cell-based, human; settings: 10 μM, 24 h
Procedure: as §2, §3

Compound | effect on blood vessels / vascularization network [1] | effect on cell growth (HUVEC; 2.5 μM or even 10 μM) | IC50 (MCF7; MCF7, MTT, 48 h continuous treatment) | IC50 (CHO; MTT, 48 h continuous treatment, non-cancer cell) | total cell population in G2/M phase (B16F10 (PgR-negative)) | IC50 (T47D; MTT, 48 h continuous treatment) | total cell population in G2/M phase (T47D (PgR-positive)) | inhibition at 2.5 µM (HUVEC; Homo sapiens, 2.5 μM, read-out: inhibition of cell growth) | IC50 (MCF7; MCF7, 48 h) | IC50 (CHO; 48 h) | IC50 (T47D; 48 h)
CC(=O)[C@H]1CC[C@H]2[C@@H]3CCC4=CC(=O)CC[C@]4(C)[C@H]3CC[C@]12C [Compound 1, Progesterone] | either no effect or little increase in the vascularization network | little to no effect | > 20 µM | > 20 µM | 19% | > 20 µM | 10% | – | – | – | –
CCCCCCCCCC[N+](C)(CCCCCCCCCC)CCNC(=O)CCC(=O)O[C@@H](C)[C@H]1CCC2C3CCC4=CC(=O)CC[C@]4(C)C3CC[C@@]21C (stereo partly drawn) [Compound 6c, N-decyl-N-(2-(4-((1S)-1-((10R,13S,17S)-10,13-dimethyl-3-oxo-2,3,6,7,8,9,10,11,12,13,14, 15,16,17-tetradecahydro-1H-cyclopenta[a]phenanthren-17-yl)ethoxy)-4-oxobutanamido)ethyl)-N-methyldecan-1-aminium chloride] | blood vessels were either significantly damaged or new blood vessel formation was delayed | – | – | – | 33% | – | 38% | 50% | 7.33 ± 0.19 µM | 17.3 ± 0.29 µM | 4.32 ± 0.57 µM
